Test results reported in ChEMBL document CHEMBL1142397, “Antineoplastic agents. 536. New sources of naturally occurring cancer cell growth inhibitors from marine organisms, terrestrial plants, and microorganisms(1a,)” (J Nat Prod, 2008).
In brackets after ≈: the same amount, converted by molar mass. Starred links: 1 amine or outer side, 2 acyl side, 3 side chain; linkers in the order of their positions; H or OH if unused. Positions of bridges follow the written chain, without caps; N, C: chain ends. Non-standard residues stand in square brackets, D forms with d. Residues, ends and D or L forms follow the SMILES beside them. Chains are numbered I, II in the order given. Actinocin(1to9) = Cc1c2oc3c(C)ccc(C(=O)[*:2])c3nc-2c(C(=O)[*:1])c(N)c1=O; NMeV = CN[C@H](C(=O)O)C(C)C; Sar = CNCC(=O)O

Key:
P388 = assay: Cytotoxicity against mouse P388 cells assessed as concentration required for 50% inhibition; type: functional
NCI-H460 = assay: Cytotoxicity against human NCIH460 cells assessed as concentration required for 50% inhibition; type: functional
SF-295 = assay: Cytotoxicity against human SF295 cells assessed as concentration required for 50% inhibition; type: functional
BXPC-3 = assay: Cytotoxicity against human BXPC3 cells assessed as concentration required for 50% inhibition; type: functional
KM-20L2 = assay: Cytotoxicity against human KM20L2 cells assessed as concentration required for 50% inhibition; type: functional
DU-145 = assay: Cytotoxicity against human DU145 cells assessed as concentration required for 50% inhibition; type: functional
OVCAR-3 = assay: Cytotoxicity against human OVCAR-3 cells assessed as concentration required for 50% inhibition; type: functional
HeLa = assay: Cytotoxicity against human HeLa cells; type: functional, cell-based
A549 = assay: Cytotoxicity against human A549 cells; type: functional, cell-based
HL-60 = assay: Cytotoxicity against human HL60 cells; type: functional, cell-based
MCF7 = assay: Cytotoxicity against human MCF7 cells assessed as concentration required for 50% inhibition; type: functional
SF-268 = assay: Cytotoxicity against human SF268 cells assessed as concentration required for 50% inhibition; type: functional

SMILES	Activity (P388) [µg/mL]	Activity (NCI-H460) [µg/mL]	Activity (SF-295) [µg/mL]	Activity (BXPC-3) [µg/mL]	Activity (KM-20L2) [µg/mL]	Activity (DU-145) [µg/mL]	Activity (OVCAR-3) [µg/mL]	IC50 (HeLa) [µg/mL]	IC50 (A549) [µg/mL]	IC50 (HL-60) [µg/mL]	Activity (MCF7) [µg/mL]	Activity (SF-268) [µg/mL]
COc1c(C)c2c(c(O)c1C/C=C(C)/C=C/C(=O)O)C(=O)OC2	0.11	–	–	–	–	–	–	–	–	–	–	–
COc1cc([C@@H]2c3cc4c(c(O[C@@H]5O[C@H](CO)[C@@H](O)[C@H](O)[C@H]5O)c3C[C@H]3COC(=O)[C@@H]32)OCO4)cc(OC)c1OC	0.21	0.28	0.27	>1	>1	>1	0.85	–	–	–	–	–
CS[C@@H]1[C@H]2C(=O)N(C)[C@@H](C(C)C)C(=O)OC[C@@H](NC(=O)c3cnc4ccccc4n3)C(=O)N[C@@H](C)C(=O)N(C)[C@@H](C[S+]1[O-])C(=O)N(C)[C@@H](C(C)C)C(=O)OC[C@@H](NC(=O)c1cnc3ccccc3n1)C(=O)N[C@@H](C)C(=O)N2C (stereo partly specified)	–	–	–	–	–	–	–	0.2 (≈ 0.179 µM)	0.2 (≈ 0.179 µM)	0.2 (≈ 0.179 µM)	–	–
CC[C@H](C)[C@@H]1NC(=O)[C@H](CC(C)C)NC(=O)[C@@H]2CCCN2C(=O)[C@H](C(C)C)NC(=O)[C@H](Cc2ccc(O)cc2)NC(=O)[C@@H]2CCCN2C(=O)[C@@H]2CCCN2C(=O)[C@H](CC(C)C)NC1=O [AXINASTATIN 5] (cyclo(ILPPYVPL))	1.9	0.82	–	0.68	0.28	0.87	–	–	–	–	1.4	1.8
CCCCCCCCCCCCCC(=O)O[C@H]1CC[C@H](NC(=O)[C@H](OC)[C@H](O)[C@@H](O)[C@H](O)/C=C/C(C)C)C(=O)NC1 [BENGAMIDE A]	0.12	0.00054	0.001	0.027	0.0049	0.0056	0.01	–	–	–	–	–
CCCCCCCCCCCCCC(=O)O[C@@H](c1cnco1)c1nc([C@@H](O)C[C@@H](O)[C@@H](O)[C@@H](C)O)co1 [BENGAZOLE A]	0.14	0.21	0.19	0.14	0.0031	0.15	0.28	–	–	–	–	–
CC(C)CCCCCCCCCCCC(=O)O[C@@H](c1cnco1)c1nc([C@@H](O)C[C@@H](O)[C@@H](O)[C@@H](C)O)co1 [BENGAZOLE B]	0.053	0.2	0.19	0.18	0.33	0.15	0.37	–	–	–	–	–
CCCCCCCCCCCCCCC(=O)O[C@@H](c1cnco1)c1nc([C@@H](O)C[C@@H](O)[C@@H](O)[C@@H](C)O)co1 [BENGAZOLE E]	0.074	0.14	0.13	0.081	0.18	0.11	0.16	–	–	–	–	–
COc1cc([C@@H]2c3cc4c(c(O)c3C[C@H]3COC(=O)[C@@H]32)OCO4)cc(OC)c1OC [BETA-PELTATIN A]	0.0031	0.00077	0.0004	0.0012	0.0076	0.0021	0.00055	–	–	–	–	–
C[C@H]1CCC/C=C/[C@@H]2C[C@H](O)C[C@H]2[C@H](O)/C=C/C(=O)O1 [BREFELDIN A]	0.23	0.28	0.38	0.07	0.022	0.13	0.041	–	–	–	0.047	0.21
CC[C@H]1CN2CCc3cc(OC)c(OC)cc3[C@@H]2C[C@@H]1C[C@H]1NCCc2cc(O)c(OC)cc21 [CEPHAELINE]	0.0027	0.022	0.018	0.024	0.022	0.0098	0.032	–	–	–	–	–
Cc1c2oc3c(C)ccc(C(=O)N[C@@H]4C(=O)N[C@H](C(C)C)C(=O)N5CCC[C@H]5C(=O)N(C)CC(=O)N(C)[C@@H](C(C)C)C(=O)O[C@@H]4C)c3nc-2c(C(=O)N[C@@H]2C(=O)N[C@H](C(C)C)C(=O)N3CCC[C@H]3C(=O)N(C)CC(=O)N(C)[C@@H](C(C)C)C(=O)O[C@@H]2C)c(N)c1=O [DACTINOMYCIN] (I: T[dV]P[Sar][NMeV] / II: T[dV]P[Sar][NMeV]; ester I:1-I:C, II:1-II:C; linker I:N-II:N via Actinocin(1to9))	<0.001	–	–	–	–	–	–	–	–	–	–	–
O=c1c(-c2ccc(O)cc2)coc2cc(O)ccc12 [DAIDZEIN]	–	>10	–	6.2	8.8	7.3	–	–	–	–	5.1	4.4
